Entries after “also recorded” stand apart in the source; their conditions may differ. Read-outs that look alike come from different tables or passages of the source.
Columns and labels:
[1] = system: Tacaribe; experiment: microbe, parasite or virus in culture; type: cell-based; details: Mammarenavirus tacaribeense, HEK-293T, read-out: Antiviral activity vs. pseudotyped viruses: Tacaribe
[2] = system: Guanarito; experiment: microbe, parasite or virus in culture; type: cell-based; details: Mammarenavirus guanaritoense, HEK-293T, read-out: Antiviral activity vs. pseudotyped viruses: Guanarito
[3] = system: Machupo; experiment: microbe, parasite or virus in culture; type: cell-based; details: Mammarenavirus machupoense, HEK-293T, read-out: Antiviral activity vs. pseudotyped viruses: Machupo
[4] = system: VSV; experiment: microbe, parasite or virus in culture; type: cell-based; details: Vesicular stomatitis virus, HEK-293T, read-out: VSV (μM) (negative control)
[5] = system: Tacaribe virus; experiment: microbe, parasite or virus in culture; type: cell-based
[6] = system: Junín; experiment: microbe, parasite or virus in culture; type: cell-based, Junin virus; details: Mammarenavirus juninense, HEK-293T, read-out: Antiviral activity vs. pseudotyped viruses: Junín
[7] = molecular target: JUNV GPC (Junin mammarenavirus, UniProt P26313); experiment: cell-based; design: species or system Junin virus
[8] = system: icd-GPC; type: binding, Junin virus
[9] = system: icd-GPC; type: binding, Junin virus; remark: listed apart in the source
[10] = system: Tacaribe virus; type: cell-based; details: read-out: Tacaribe (Plaque reduction) EC50
[11] = system: Machupo; type: cell-based, Machupo virus; details: read-out: Machupo (Plaque reduction) EC50
[12] = system: Guanarito; type: cell-based, Guanarito virus; details: read-out: Guanarito (Plaque reduction) EC50
[13] = system: Junín; type: cell-based, Junin virus; details: read-out: Junin (Plaque reduction) EC50
[14] = system: Tacaribe virus; design: species or system BALB/c mice; details: mouse, in vivo
[15] = system: drug resistant Tacaribe mutants; type: cell-based, Tacaribe virus
[16] = system: Vero cells
[17] = system: S. typhimurium tester strains TA7007 and TA7006 and TA98
[18] = in vivo
[19] = in vivo; remark: listed apart in the source
[20] = mouse, in vivo, ip, 100 mg/kg/day

JUNV GPC, sequence (P26313 2-58 limits assumed): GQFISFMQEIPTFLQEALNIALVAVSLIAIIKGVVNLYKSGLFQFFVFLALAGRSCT
JUNV GPC, sequence (P26313 59-251 partner limits assumed): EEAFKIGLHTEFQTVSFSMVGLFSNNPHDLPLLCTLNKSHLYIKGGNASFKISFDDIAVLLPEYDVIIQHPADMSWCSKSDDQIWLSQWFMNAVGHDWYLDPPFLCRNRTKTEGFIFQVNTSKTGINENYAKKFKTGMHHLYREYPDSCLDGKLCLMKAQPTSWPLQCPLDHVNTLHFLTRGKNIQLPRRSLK
JUNV GPC, sequence (P26313 252-485 limits assumed): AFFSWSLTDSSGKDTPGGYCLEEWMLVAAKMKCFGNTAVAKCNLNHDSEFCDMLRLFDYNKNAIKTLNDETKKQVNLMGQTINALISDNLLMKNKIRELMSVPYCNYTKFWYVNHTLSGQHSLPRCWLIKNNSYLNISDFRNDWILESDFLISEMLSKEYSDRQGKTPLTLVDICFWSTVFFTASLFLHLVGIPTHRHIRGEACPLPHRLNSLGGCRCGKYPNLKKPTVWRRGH

| Compound | EC50 [1] | EC50 [2] | EC50 [3] | EC50 [4] | also measured |
| --- | --- | --- | --- | --- | --- |
| CCC(NC(=O)NNS(=O)(=O)c1c(C)cc(C)cc1C)(C(F)(F)F)C(F)(F)F [Compound 99, 1-[1,1-bis(trifluoromethyl)propyl]-3-[(2,4,6-trimethylphenyl)sulfonylamino] urea] | < 1 µM | < 1 µM | < 1 µM | > 30 µM | – |
| CCC(NC(=O)NNS(=O)(=O)c1ccc(C(C)(C)C)cc1)(C(F)(F)F)C(F)(F)F [Compound 100, 1-[1,1-bis(trifluoromethyl)propyl]-3-[(4-tert-butylphenyl)sulfonylamino]urea] | < 1 µM | < 1 µM | < 1 µM | 19.7 µM | – |
| CCC(NC(=O)NNS(=O)(=O)c1cc(OC)ccc1OC)(C(F)(F)F)C(F)(F)F [Compound 101, 1-[1,1-bis(trifluoromethyl)propyl]-3-[(2,5-dimethoxyphenyl)sulfonylamino] urea] | < 1 µM | < 1 µM | < 1 µM | > 30 µM | – |
| CCC(NC(=O)NNS(=O)(=O)c1ccc2ccccc2c1)(C(F)(F)F)C(F)(F)F [Compound 102, 1-[1,1-bis(trifluoromethyl)propyl]-3-(2-naphthylsulfonylamino)urea] | < 1 µM | < 1 µM | < 1 µM | > 20 µM | – |
| CCC(NC(=O)NNS(=O)(=O)c1ccc(C(C)C)cc1)(C(F)(F)F)C(F)(F)F [Compound 103, 1-[1,1-bis(trifluoromethyl)propyl]-3-[(4-isopropylphenyl)sulfonylamino] urea] | < 1 µM | < 1 µM | < 1 µM | > 20 µM | – |
| CCC(NC(=O)NNS(=O)(=O)c1cc(Cl)ccc1OC)(C(F)(F)F)C(F)(F)F [Compound 104, 1-[1,1-bis(trifluoromethyl)propyl]-3-[(5-chloro-2-methoxy-phenyl)sulfonylamino]urea] | < 1 µM | < 1 µM | < 1 µM | > 30 µM | – |
| CCC(NC(=O)NNS(=O)(=O)c1ccccc1-c1ccccc1)(C(F)(F)F)C(F)(F)F [Compound 105, 1-[1,1-bis(trifluoromethyl)propyl]-3-[(2-phenylphenyl)sulfonylamino] urea] | < 1 µM | < 1 µM | < 1 µM | > 30 µM | – |
| CCC(NC(=O)NNS(=O)(=O)c1ccc(Cl)c(Cl)c1)(C(F)(F)F)C(F)(F)F [Compound 106, 1-[1,1-bis(trifluoromethyl)propyl]-3-[(3,4-dichlorophenyl)sulfonylamino]urea] | < 1 µM | < 1 µM | < 1 µM | > 30 µM | – |
| CCC(NC(=O)NNS(=O)(=O)c1ccc(Br)cc1)(C(F)(F)F)C(F)(F)F [Compound 107, 1-[1,1-bis(trifluoromethyl)propyl]-3-[(4-bromophenyl)sulfonylamino] urea] | < 1 µM | < 1 µM | < 1 µM | > 30 µM | – |
| CCC(NC(=O)NNS(=O)(=O)c1ccc(OC(F)F)cc1)(C(F)(F)F)C(F)(F)F [Compound 108, 1-[1,1-bis(trifluoromethyl)propyl]-3-[[4-(difluoromethoxy)phenyl]sulfonyl-amino]urea] | – | – | – | – | EC50 ([5]; Mammarenavirus tacaribeense, Vero, read-out: Tacaribe (result of cytopathic effect assay)): < 1 µM |
| CCC(NC(=O)NNS(=O)(=O)c1cc(C)cc(C)c1)(C(F)(F)F)C(F)(F)F [Compound 109, 1-[1,1-bis(trifluoromethyl)propyl]-3-[(3,5-dimethylphenyl)sulfonylamino] urea] | < 1 µM | < 10 µM | < 10 µM | > 30 µM | – |
| CCC(NC(=O)NNS(=O)(=O)c1cccc2c(N(C)C)cccc12)(C(F)(F)F)C(F)(F)F [Compound 110, 1-[1,1-bis(trifluoromethyl)propyl]-3-[[5-(dimethylamino)-1-naphthyl]sulfonylamino]urea] | < 1 µM | < 10 µM | < 1 µM | > 30 µM | EC50 [6]: < 1 µM; EC50 [7]: 0.6 µM; dansyl fluorescence at 525 nm on binding to solubilized icd-GPC [8]: increase in a time-dependent manner |
| CCC(NC(=O)NNS(=O)(=O)c1cccc2ccccc12)(C(F)(F)F)C(F)(F)F [Compound 111, 1-[1,1-bis(trifluoromethyl)propyl]-3-(1-naphthylsulfonylamino)urea] | < 1 µM | < 1 µM | < 1 µM | > 30 µM | – |
| CCC(NC(=O)NNS(=O)(=O)c1ccc2c(c1)OCCN2C)(C(F)(F)F)C(F)(F)F [Compound 112, 1-[1,1-bis(trifluoromethyl)propyl]-3-[(4-methyl-2,3-dihydro-1,4-benzoxazin-7-yl)sulfonylamino] urea] | < 1 µM | < 10 µM | < 1 µM | > 30 µM | – |
| CCC(NC(=O)NNS(=O)(=O)c1cc(OCC(F)(F)F)ccc1OCC(F)(F)F)(C(F)(F)F)C(F)(F)F [Compound 113, 1-[[2,5-bis(2,2,2-trifluoroethoxy)phenyl]sulfonyl-amino]-3-[1,1-bis(trifluoromethyl)propyl]urea] | < 1 µM | < 1 µM | < 1 µM | 21 µM | – |
| CCC(NC(=O)NNS(=O)(=O)c1ccc(-c2csnn2)cc1)(C(F)(F)F)C(F)(F)F [Compound 114, 1-[1,1-bis(trifluoromethyl)propyl]-3-[[4-(thiadiazol-4-yl)phenyl]sulfonylamino]urea] | < 1 µM | < 1 µM | < 1 µM | > 30 µM | EC50 [6]: < 1 µM |
| CCC(NC(=O)NNS(=O)(=O)c1cc(Br)ccc1OC)(C(F)(F)F)C(F)(F)F [Compound 115, 1-[1,1-bis(trifluoromethyl)propyl]-3-[(5-bromo-2-methoxy-phenyl)sulfonylamino]urea] | < 1 µM | < 1 µM | < 1 µM | > 30 µM | – |
| CCC(NC(=O)NNS(=O)(=O)c1ccc(-c2ccccc2)cc1)(C(F)(F)F)C(F)(F)F [Compound 116, 1-[1,1-bis(trifluoromethyl)propyl]-3-[(4-phenylphenyl)sulfonylamino] urea] | < 1 µM | < 10 µM | < 1 µM | > 20 µM | – |
| CC(NC(=O)Nc1ccccc1C(F)(F)F)(C(F)(F)F)C(F)(F)F [Example 97, 1-(2-Trifluoromethylphenyl)-3-(2,2,2-trifluoro-1-methyl-1-trifluoromethylethyl)-urea] | – | – | – | – | EC50 ([5]; Mammarenavirus tacaribeense, Vero, read-out: Tacaribe EC50): > 5 µM |
| COc1ccc(-n2cnc3cc(NCc4ccc(C(C)C)cc4)ccc32)cc1 [ST-193, reference compound] | – | – | – | – | displacement of bound ST-375 from icd-GPC [9]: displaced from icd-GPC in a time- and concentration-dependent manner |
| N-2-(1,1,1,3,3,3-hexafluoro-1-methylpropyl)-2-[(4-difluoromethoxyphenyl)sulfonyl]hydrazine-1-carboxamide [ST-294] | – | – | – | – | Tacaribe virus CPE EC50 [5]: 0.066 µg/mL; EC50 ([5]; read-out: Tacaribe (CPE) EC50): 0.12 µM; EC50 [10]: 0.1 µM; EC50 [11]: 0.3 µM; EC50 [12]: 1 µM; EC50 [13]: 0.3 µM; efficacy (survival) in Tacaribe infected newborn mice [14]: both survival and a delay in death similar to the drug control; also recorded: significant protection against Tacaribe virus induced disease; displacement of bound ST-375 from icd-GPC [9]: displaced from icd-GPC in a time- and concentration-dependent manner; susceptibility of ST-336 drug resistant Tacaribe variants [15]: all of the mutants elicited cross-resistance; CC50 [16]: > 50 µM; Genotoxicity (Ames test) [17]: negative; PK (rat/oral) ½ life [18]: 2 h; Cmax (serum levels) ([18]; rat, po): 6670 ng/mL; PK (newborn mouse/IP) Cmax [19]: 2910 ng/mL; PK (newborn mouse/IP) ½ life [19]: 3 h; tolerability [20]: well tolerated |
